# Data as given in BindingDB's records for doi:10.1016/j.bmcl.2014.03.015 (Jiangnan University, 2014).
# Molecular target: T1, Tyrosine-protein phosphatase non-receptor type 11 (Homo sapiens, UniProt Q06124)
# T1 sequence (Q06124 whole entry): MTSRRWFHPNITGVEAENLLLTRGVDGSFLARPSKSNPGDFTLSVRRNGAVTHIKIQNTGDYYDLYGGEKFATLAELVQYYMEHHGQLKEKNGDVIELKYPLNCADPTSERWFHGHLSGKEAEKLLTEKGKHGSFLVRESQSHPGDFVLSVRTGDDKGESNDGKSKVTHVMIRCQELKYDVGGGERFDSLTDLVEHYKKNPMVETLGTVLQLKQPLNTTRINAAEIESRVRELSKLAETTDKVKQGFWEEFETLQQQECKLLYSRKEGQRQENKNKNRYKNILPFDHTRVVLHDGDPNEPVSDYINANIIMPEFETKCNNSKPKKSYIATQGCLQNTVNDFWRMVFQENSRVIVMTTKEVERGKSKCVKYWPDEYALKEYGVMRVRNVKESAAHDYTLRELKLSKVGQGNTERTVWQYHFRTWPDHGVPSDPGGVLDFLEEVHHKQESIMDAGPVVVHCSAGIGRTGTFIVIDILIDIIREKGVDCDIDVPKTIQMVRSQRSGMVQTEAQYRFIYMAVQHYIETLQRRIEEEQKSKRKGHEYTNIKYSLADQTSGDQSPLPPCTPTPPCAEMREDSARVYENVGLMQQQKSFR
# Assay: pNPP assay
row,SMILES,IC50 [µM]
1,[O]=[V]([OH])([OH])[OH],34.7
2,O=C(Nc1ccc(-c2ccc(NC(=O)c3ccc(F)cc3)cn2)cc1)c1ccc(F)cc1 [4-fluoro-N-(6-(4-(4-fluorobenzamido)phenyl)pyridin-3-yl)benzamide (29)],19.7
